Source: the kinase profiling compilation of Christmann-Franck et al. (2016)

How the values were obtained:
Assay in all cases: KINOMEscan competition binding
Settings in all cases: compound 10.0 µM
[1] = target: TEC (human) (UniProt P42680)
[2] = target: NEK3 (human) (UniProt P51956)
[3] = target: LRRK2 (human) (UniProt Q5S007)
[4] = target: MAP4K3 (human) (UniProt Q8IVH8)
[5] = target: CDC42BPB (human) (UniProt Q9Y5S2)
[6] = target: MAP4K4 (human) (UniProt O95819)
[7] = target: MST4 (human) (UniProt Q9P289)
[8] = target: ADCK3 (human) (UniProt Q8NI60)
[9] = target: ICK (human) (UniProt Q9UPZ9)
[10] = target: IKBKE (human) (UniProt Q14164)
[11] = target: HCK (human) (UniProt P08631)
[12] = target: MARK3 (human) (UniProt P27448)
[13] = target: ACVR1B (human) (UniProt P36896)
[14] = target: ACVR2B (human) (UniProt Q13705)
[15] = target: TNK2 (human) (UniProt Q07912)
[16] = target: MAP3K3 (human) (UniProt Q99759)
[17] = tested on: FLT3 (human), P36888 [ITD]
[18] = target: SIK1 (human) (UniProt P57059)
[19] = target: STK16 (human) (UniProt O75716)
[20] = target: FGFR3 (human) (UniProt P22607)
[21] = target: PTK2B (human) (UniProt Q14289)
[22] = target: JAK3 JH1 catalytic (human) (UniProt P52333)
[23] = target: TBK1 (human) (UniProt Q9UHD2)
[24] = target: PIP5K1C (human) (UniProt O60331)
[25] = target: EPHB6 (human) (UniProt O15197)
[26] = target: FER (human) (UniProt P16591)
[27] = target: TEK (human) (UniProt Q02763)
[28] = target: MARK2 (human) (UniProt Q7KZI7)
[29] = target: STK25 (human) (UniProt O00506)
[30] = target: CDK19 (human) (UniProt Q9BWU1)
[31] = target: TSSK1B (human) (UniProt Q9BXA7)
[32] = tested on: EGFR (human), P00533 [T790M/L858R]
[33] = target: GRK1 (human) (UniProt Q15835)
[34] = target: MERTK (human) (UniProt Q12866)
[35] = target: SLK (human) (UniProt Q9H2G2)
[36] = tested on: KIT (human), P10721 [V559D/T670I]
[37] = target: TLK1 (human) (UniProt Q9UKI8)
[38] = target: CDC42BPG (human) (UniProt Q6DT37)
[39] = target: NTRK3 (human) (UniProt Q16288)
[40] = target: RET (human) (UniProt P07949)
[41] = target: MAP3K15 (human) (UniProt Q6ZN16)
[42] = target: AXL (human) (UniProt P30530)

Chain of RET (human) (P07949 whole entry, looked up): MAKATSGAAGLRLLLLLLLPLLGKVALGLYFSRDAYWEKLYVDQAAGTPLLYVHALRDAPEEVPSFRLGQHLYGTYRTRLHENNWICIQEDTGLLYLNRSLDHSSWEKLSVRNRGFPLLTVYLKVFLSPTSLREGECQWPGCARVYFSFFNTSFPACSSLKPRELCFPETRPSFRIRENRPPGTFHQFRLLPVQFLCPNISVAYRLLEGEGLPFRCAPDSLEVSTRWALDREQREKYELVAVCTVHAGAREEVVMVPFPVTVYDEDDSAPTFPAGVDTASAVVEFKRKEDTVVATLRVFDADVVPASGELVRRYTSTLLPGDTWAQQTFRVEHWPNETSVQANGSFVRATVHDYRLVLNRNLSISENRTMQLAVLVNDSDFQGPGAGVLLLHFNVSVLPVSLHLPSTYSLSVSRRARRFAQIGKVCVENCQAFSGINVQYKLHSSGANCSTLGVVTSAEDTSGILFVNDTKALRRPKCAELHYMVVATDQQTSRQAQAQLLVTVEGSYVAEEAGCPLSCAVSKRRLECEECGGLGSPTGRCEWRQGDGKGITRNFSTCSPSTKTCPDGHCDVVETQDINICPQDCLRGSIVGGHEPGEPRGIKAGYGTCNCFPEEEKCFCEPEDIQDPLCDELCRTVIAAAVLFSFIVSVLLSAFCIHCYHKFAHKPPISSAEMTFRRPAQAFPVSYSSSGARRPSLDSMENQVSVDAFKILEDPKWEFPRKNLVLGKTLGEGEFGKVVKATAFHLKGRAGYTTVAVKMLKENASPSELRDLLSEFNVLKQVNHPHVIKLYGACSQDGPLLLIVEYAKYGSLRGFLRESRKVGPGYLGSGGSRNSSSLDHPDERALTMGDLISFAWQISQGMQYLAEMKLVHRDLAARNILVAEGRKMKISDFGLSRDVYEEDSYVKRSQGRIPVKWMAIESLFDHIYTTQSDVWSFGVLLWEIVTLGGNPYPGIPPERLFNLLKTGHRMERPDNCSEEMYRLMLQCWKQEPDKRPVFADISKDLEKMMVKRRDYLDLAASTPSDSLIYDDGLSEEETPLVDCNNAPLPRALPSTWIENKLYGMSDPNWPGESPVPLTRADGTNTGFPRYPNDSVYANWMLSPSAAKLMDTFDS
Chain of SIK1 (human) (P57059 whole entry, looked up): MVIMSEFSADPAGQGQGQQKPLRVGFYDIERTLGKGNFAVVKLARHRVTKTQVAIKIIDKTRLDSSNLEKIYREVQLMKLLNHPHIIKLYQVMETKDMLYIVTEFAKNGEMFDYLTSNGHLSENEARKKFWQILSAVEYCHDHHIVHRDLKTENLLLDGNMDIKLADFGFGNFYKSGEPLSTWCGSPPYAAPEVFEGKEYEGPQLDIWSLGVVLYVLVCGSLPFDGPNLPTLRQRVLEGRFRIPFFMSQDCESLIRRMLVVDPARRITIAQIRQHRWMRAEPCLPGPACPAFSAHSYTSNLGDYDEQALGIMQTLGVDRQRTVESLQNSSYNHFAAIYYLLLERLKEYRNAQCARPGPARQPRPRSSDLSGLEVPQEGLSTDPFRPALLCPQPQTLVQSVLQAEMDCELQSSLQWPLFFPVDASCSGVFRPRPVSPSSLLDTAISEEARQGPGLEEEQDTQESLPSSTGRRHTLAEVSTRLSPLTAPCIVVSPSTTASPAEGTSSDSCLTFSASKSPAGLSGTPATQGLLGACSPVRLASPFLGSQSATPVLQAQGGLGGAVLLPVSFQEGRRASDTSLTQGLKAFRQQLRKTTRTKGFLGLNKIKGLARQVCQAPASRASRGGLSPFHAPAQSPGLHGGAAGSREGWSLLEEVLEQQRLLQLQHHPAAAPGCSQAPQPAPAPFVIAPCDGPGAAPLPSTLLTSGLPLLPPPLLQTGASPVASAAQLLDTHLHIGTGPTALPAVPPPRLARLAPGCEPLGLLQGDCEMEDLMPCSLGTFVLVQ
Chain of MARK3 (human) (P27448 whole entry, looked up): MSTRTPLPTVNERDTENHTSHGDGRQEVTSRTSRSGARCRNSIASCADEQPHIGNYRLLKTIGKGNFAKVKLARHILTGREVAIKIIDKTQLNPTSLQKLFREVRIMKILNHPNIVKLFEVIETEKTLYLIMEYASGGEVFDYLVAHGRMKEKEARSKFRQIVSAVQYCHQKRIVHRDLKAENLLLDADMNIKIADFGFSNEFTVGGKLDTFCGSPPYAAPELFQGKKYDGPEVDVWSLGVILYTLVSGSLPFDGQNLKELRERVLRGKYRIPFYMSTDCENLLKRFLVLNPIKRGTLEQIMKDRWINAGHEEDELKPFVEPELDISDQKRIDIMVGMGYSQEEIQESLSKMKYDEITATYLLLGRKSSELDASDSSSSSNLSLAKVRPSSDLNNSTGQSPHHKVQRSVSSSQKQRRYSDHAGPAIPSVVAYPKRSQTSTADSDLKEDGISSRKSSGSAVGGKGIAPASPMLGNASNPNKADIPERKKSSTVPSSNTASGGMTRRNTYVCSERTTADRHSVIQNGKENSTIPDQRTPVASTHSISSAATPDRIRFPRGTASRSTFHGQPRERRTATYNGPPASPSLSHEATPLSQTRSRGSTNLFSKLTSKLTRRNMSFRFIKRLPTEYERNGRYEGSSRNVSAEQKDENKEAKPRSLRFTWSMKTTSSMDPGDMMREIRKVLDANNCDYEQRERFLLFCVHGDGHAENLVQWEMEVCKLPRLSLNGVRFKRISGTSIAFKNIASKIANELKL
Chain of MERTK (human) (Q12866 whole entry, looked up): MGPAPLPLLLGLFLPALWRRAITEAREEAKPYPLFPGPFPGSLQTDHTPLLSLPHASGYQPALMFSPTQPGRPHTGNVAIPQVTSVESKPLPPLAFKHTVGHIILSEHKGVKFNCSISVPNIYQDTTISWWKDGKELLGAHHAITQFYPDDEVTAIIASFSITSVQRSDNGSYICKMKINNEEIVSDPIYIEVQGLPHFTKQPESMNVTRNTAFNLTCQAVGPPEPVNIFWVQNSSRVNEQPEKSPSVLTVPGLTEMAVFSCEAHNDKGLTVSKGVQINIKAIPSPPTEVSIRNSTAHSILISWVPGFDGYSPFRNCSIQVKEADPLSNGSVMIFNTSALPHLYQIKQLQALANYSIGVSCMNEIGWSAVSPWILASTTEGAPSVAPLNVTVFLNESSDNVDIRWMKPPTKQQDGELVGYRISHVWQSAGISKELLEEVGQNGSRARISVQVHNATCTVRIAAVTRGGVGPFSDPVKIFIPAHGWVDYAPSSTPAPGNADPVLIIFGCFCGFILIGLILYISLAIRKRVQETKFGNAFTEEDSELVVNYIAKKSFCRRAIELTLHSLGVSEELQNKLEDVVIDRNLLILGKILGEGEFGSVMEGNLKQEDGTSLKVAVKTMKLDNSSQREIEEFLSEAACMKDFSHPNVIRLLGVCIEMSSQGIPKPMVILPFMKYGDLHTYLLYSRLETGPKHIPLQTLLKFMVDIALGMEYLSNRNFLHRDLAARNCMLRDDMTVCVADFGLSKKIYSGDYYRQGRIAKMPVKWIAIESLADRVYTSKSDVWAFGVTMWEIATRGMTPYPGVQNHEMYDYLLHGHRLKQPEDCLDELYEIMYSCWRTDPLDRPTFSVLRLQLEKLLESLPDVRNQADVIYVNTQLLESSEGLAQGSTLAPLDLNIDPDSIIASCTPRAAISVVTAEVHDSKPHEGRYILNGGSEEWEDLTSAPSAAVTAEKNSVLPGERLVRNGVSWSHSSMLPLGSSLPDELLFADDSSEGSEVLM
Chain of PIP5K1C (human) (O60331 whole entry, looked up): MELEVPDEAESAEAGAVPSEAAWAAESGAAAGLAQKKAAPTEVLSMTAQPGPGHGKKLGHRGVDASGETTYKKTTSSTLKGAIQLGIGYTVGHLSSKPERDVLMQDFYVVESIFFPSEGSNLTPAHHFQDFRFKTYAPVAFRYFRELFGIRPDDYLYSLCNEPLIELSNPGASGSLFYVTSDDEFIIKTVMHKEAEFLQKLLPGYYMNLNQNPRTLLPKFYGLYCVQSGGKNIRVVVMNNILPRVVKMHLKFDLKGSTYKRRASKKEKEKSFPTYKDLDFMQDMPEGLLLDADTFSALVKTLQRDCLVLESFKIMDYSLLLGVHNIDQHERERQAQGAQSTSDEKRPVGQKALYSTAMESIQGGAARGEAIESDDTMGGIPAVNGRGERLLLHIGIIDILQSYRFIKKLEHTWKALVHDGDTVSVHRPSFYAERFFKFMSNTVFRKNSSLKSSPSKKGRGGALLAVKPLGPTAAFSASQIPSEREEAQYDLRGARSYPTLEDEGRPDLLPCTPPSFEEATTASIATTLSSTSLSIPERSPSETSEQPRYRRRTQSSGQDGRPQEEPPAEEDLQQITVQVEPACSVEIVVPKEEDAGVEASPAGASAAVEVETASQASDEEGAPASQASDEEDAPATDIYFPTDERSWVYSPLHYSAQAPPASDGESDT
Chain of TBK1 (human) (Q9UHD2 whole entry, looked up): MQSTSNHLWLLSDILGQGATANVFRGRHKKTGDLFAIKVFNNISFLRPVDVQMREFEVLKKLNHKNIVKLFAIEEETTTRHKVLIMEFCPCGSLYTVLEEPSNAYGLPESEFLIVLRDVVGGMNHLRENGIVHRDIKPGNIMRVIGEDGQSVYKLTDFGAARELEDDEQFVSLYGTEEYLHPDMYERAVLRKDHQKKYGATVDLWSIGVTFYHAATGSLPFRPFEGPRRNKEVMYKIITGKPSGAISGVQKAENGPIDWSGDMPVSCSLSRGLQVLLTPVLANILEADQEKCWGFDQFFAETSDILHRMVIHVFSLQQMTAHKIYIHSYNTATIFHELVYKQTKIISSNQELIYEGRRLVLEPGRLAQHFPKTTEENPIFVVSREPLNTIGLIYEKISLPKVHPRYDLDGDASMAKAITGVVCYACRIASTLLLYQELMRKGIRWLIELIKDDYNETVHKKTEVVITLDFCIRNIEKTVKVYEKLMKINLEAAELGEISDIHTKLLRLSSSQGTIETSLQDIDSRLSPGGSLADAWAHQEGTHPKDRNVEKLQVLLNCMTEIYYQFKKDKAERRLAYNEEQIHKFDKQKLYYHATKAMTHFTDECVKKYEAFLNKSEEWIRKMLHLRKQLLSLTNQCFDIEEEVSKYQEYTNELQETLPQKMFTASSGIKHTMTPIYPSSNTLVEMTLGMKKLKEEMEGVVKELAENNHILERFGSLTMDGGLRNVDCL

Cc1cc([C@@H](C)Nc2ccccc2C(=O)O)c2nc(N3CCOCC3)cc(=O)n2c1
kinase still bound, per cent of control [1]: 91%
kinase still bound, per cent of control [2]: 65%
kinase still bound, per cent of control [3]: 97%
kinase still bound, per cent of control [4]: 99%
kinase still bound, per cent of control [5]: 100%
kinase still bound, per cent of control [6]: 98%
kinase still bound, per cent of control [7]: 100%
kinase still bound, per cent of control [8]: 70%
kinase still bound, per cent of control [9]: 100%
kinase still bound, per cent of control [10]: 100%
kinase still bound, per cent of control [11]: 60%
kinase still bound, per cent of control [12]: 95%
kinase still bound, per cent of control [13]: 100%
kinase still bound, per cent of control [14]: 100%
kinase still bound, per cent of control [15]: 100%
kinase still bound, per cent of control [16]: 77%
kinase still bound, per cent of control [17]: 40%
kinase still bound, per cent of control [18]: 100%
kinase still bound, per cent of control [19]: 99%
kinase still bound, per cent of control [20]: 100%
kinase still bound, per cent of control [21]: 90%
kinase still bound, per cent of control [22]: 100%
kinase still bound, per cent of control [23]: 100%
kinase still bound, per cent of control [24]: 55%
kinase still bound, per cent of control [25]: 40%
kinase still bound, per cent of control [26]: 81%
kinase still bound, per cent of control [27]: 94%
kinase still bound, per cent of control [28]: 100%
kinase still bound, per cent of control [29]: 100%
kinase still bound, per cent of control [30]: 100%
kinase still bound, per cent of control [31]: 79%
kinase still bound, per cent of control [32]: 100%
kinase still bound, per cent of control [33]: 81%
kinase still bound, per cent of control [34]: 100%
kinase still bound, per cent of control [35]: 85%
kinase still bound, per cent of control [36]: 64%
kinase still bound, per cent of control [37]: 100%
kinase still bound, per cent of control [38]: 99%
kinase still bound, per cent of control [39]: 75%
kinase still bound, per cent of control [40]: 96%
kinase still bound, per cent of control [41]: 55%
kinase still bound, per cent of control [42]: 100%
